How the values were obtained:
MCF-7 cells = test: SiNW-ECIS impedance and capacitance measurement of drug-treated MCF-7 cells; assay type: cell-based, human; conditions: for change of norm in impedance of treated cells, T1 vs. T2: 2 hours vs. 6 hours after drug incubation; for norm of capacitive changes, control sample more than treated sample: 6 hours after drug incubation (T2)
Procedure: In this example, the diagnostic response of cells membrane to extremely low dose of antitubulin drugs is investigated. Initially, MCF-7 cell lines, isolated from grade I human breast tumors, were obtained from the National Cell Bank of Iran (Pasteur Institute). Then, cells were maintained in a CO2 incubator (37° C., 5% CO2) in RPMI-1640 medium supplemented with 5% fetal bovine serum, and 1% penicillin/streptomycin. The fresh medium was replaced every other day. Then, the cultured cells were dropped on the surface of the SiNW-ECIS, designed and fabricated pursuant to teachings of the present application. Prior to each experiment, cells were trypsinized to be detached from the substrate and resuspended on the SiNW surface. To minimize the effect of trypsinization, the procedure may last for less than 4 minutes at room temperature of about 20° C. The samples were held in an incubator for about 4 hours to achieve cells attachment on the SiNWs. Thereafter, the ABZ drug with low concentrations of about 2.1 nano-moles per liter and the PTX drug with low concentrations of about 0.1 nano-moles per liter were added to individual samples. Finally, the signal recording and biological assays were investigated about 2 hours and 6 hours after the drug treatment (6 hours and 10 hours after the beginning of culturing process).
Referring to FIGS. 12A-12G, comparative normalized diagrams of impedance (designated by ΔZ % and represented by solid black lines) and capacitance changes (designated by ΔC % and represented by dashed grey lines) are illustrated for MCF-7 cells seeded on SiNW electrodes after treating by 2.1 nano-moles per liter of ABZ and 0.1 nano-moles per liter of PTX. The time interval between the drug incubation and the signal extraction are 2 hours (designated by T1) and 6 hours (designated by T2). In addition, the same diagrams are plotted for control sample prepared with no drug treatment stage.
According to the method described in the present example, the samples were maintained in an incubator so that the signal extraction was repeated 10 hours after cells dropping (6 hours after drug incubation for treated samples) to monitor the time evolution of drug induced MT polymerization/depolymerization on bioelectrical response of the membrane.

[1] = system: tubulin assemblies of MCF-7 cells; test: Confocal microscopy of tubulin assemblies of MCF-7 cells; assay type: cell-based, human
Procedure: In addition, an un-treated control sample was prepared as reference for comparison. Then, samples were washed with PBS and permeabilized with microtubule stabilizing buffer [80 mM PIPES-KOH (pH 6.8), 5 mM EGTA, and 1 mM MgCl2 containing 0.5% Triton X-100] for 5 min at room temperature before being fixed with chilled absolute methanol for 10 min at −20° C. Thereafter, the fixed cells were washed and incubated with monoclonal mouse anti-α-tubulin antibody (Sigma Co.) for 1 hour at room temperature followed by incubation with FITC-conjugated antimouse IgG antibody (Santa Cruz Biotechnology). The stained cells were mounted with Vectashield (Vector Laboratories, Burlingame, Calif.) and observed by confocal microscopy.

[2] = MCF-7, PTX 0.1 nano-moles per liter, 2 hours after treatment (T1)
[3] = MCF-7, PTX 0.1 nano-moles per liter
[4] = MCF-7, ABZ 2.1 nano-moles per liter, 2 hours after drug incubation (T1)
[5] = MCF-7, ABZ 2.1 nano-moles per liter

SMILES	variation in mean capacitance of the sensor versus control (MCF-7 cells; [2])	variation in mean impedance of the sensor versus control (MCF-7 cells; [2])	change of norm in impedance of treated cells, T1 vs. T2 (MCF-7 cells; [3]) [%]	norm of capacitive changes, control sample more than treated sample (MCF-7 cells; [3]) [%]	spindle / microtubule morphology (confocal image) ([1]; MCF-7, PTX 0.1 nano-moles per liter, 2 hours after treatment)	spindle / microtubule morphology (confocal image) ([1]; MCF-7, PTX 0.1 nano-moles per liter, 6 hours after treatment)	changes in membrane impedance versus control (MCF-7 cells; [4]) [%]	variations in capacitance of the sensor versus control (MCF-7 cells; [4]) [%]	change of norm in impedance of treated cells, T1 vs. T2 (MCF-7 cells; [5])	norm of capacitive changes, control sample more than treated sample (MCF-7 cells; [5])	spindle / microtubule morphology (confocal image) ([1]; MCF-7, ABZ 2.1 nano-moles per liter, 2 hours after treatment)	spindle / microtubule morphology (confocal image) ([1]; MCF-7, ABZ 2.1 nano-moles per liter, 6 hours after treatment)
CC(=O)O[C@H]1C(=O)[C@@]2(C)[C@H]([C@H](OC(=O)c3ccccc3)[C@]3(O)C[C@H](OC(=O)[C@H](O)[C@@H](NC(=O)c4ccccc4)c4ccccc4)C(C)=C1C3(C)C)[C@]1(OC(C)=O)CO[C@@H]1C[C@@H]2O [PTX, Paclitaxel]	about 60%	about 50%	15	~75	aggregated spindles	increased aggregation in MT spindles						
CCCSc1ccc2nc(NC(=O)OC)[nH]c2c1 [ABZ, Albendazole]							25	70	about 60%	about 90%	abnormally reduced numbers of spindles or monopolar (monoaster) spindles	monoastered MTs are observable
